Test system: Mild to Moderate Osteoarthritis of the Knee
Assay: Phase 2 study: WOMAC (VAS) pain subscale score, target knee
Type: in vivo, human
Conditions: for Change of WOMAC pain score from baseline (±SEM) / Percentage of improvement from baseline, WOMAC pain score: all patients taken as active
Source text: This is a Phase 2, multicenter, randomized, double blind (within dose), placebo controlled, parallel group, proof of concept, and dose range finding study to evaluate the efficacy, safety, and PK of 2-(diethylamino)ethyl 2-(4-isobutylphenyl)propionate hydrochloride spray in adult subjects with clinically symptomatic mild to moderate OA of the knee. For subjects with bilateral knee pain, both knees will be treated, but the most symptomatic knee (i.e., the most painful knee as measured by the Western Ontario and McMaster University Osteoarthritis Index [WOMAC® 3.1] pain subscale score at Screening) will be designated as the target knee for efficacy analyses. For subjects with unilateral knee pain, only the symptomatic (target) knee will be treated.
After a Screening Period of up to 3 weeks and radiographic evaluation of the target knee joint space, a subject will be randomly assigned to 1 of 3 treatment groups in a 1:1:1 ratio with a 2:1 ratio of active:placebo within each treatment group (ie, 2 subjects to active treatment and 1 subject to placebo): • Group A: 8.75 mg 2-(diethylamino)ethyl 2-(4-isobutylphenyl)propionate/knee (2 sprays/knee, one spray to the medial surface and one spray to the lateral surface of the knee), twice daily (BID, approximately every 12 hours; n=50) or placebo (2 sprays/knee), BID (approximately every 12 hours; n=25) for a total of 4 sprays per knee per day; • Group B: 17.5 mg 2-(diethylamino)ethyl 2-(4-isobutylphenyl)propionate/knee (4 sprays/knee, one spray to the medial surface and one spray to the lateral surface of the knee, and one spray to front and one spray to the back of the knee), BID (approximately every 12 hours; n=50) or placebo (4 sprays/knee), BID (approximately every 12 hours; n=25) for a total of 8 sprays per knee per day; • Group C: 35 mg 2-(diethylamino)ethyl 2-(4-isobutylphenyl)propionate/knee (8 sprays/knee, each spray is to be applied to a different non-overlapping area around the knee, and the areas are to be uniformly distributed around the knee), BID (approximately every 12 hours; n=50) or placebo (8 sprays/knee), BID (approximately every 12 hours; n=25) for a total of 16 sprays per knee per day.
The VAS version of the WOMAC will be used for the Primary and Secondary Efficacy Endpoints. Efficacy endpoints will be assessed at Screening and Baseline (Day 1) and at the Week 2, Week 4, Week 8, and Week 12/EOS visits.
The Primary Efficacy Endpoint is the change from Baseline in the WOMAC (VAS) pain subscale score for the target knee at […] of treatment.
3.9.2. Secondary Efficacy Endpoints: • 1. Change from Baseline in the WOMAC (VAS) pain subscale score for the target knee at 2, 4, and 8 weeks of treatment; • 2. Change from Baseline in the WOMAC (VAS) stiffness subscale scores for the target knee and WOMAC (VAS) functional ability subscale scores at 2, 4, 8, and 12 weeks of treatment; • 3. Change from Baseline in the overall WOMAC (VAS) score at 2, 4, 8, and 12 weeks of treatment.
The Primary Efficacy Endpoint is change from Baseline in the WOMAC (VAS) pain subscale score for the target knee at 4 weeks of treatment, and will be analyzed using an analysis of covariance (ANCOVA). Treatment will be included as a fixed class effect and WOMAC Baseline pain subscale score as covariates. The primary comparisons of interest will be the difference between active Group A (8.75 mg 2-(diethylamino)ethyl 2-(4-isobutylphenyl)propionate/knee) and combined placebo, active Group B (17.5 mg 2-(diethylamino)ethyl 2-(4-isobutylphenyl)propionate/knee) and combined placebo, and active Group C (35 mg 2-(diethylamino)ethyl 2-(4-isobutylphenyl)propionate/knee) and combined placebo. […]

[1] = 8.75 mg/knee (BID), Follow up (week 13, day 91)
[2] = 8.75 mg/knee (BID), Week 2 (day 14)
[3] = 8.75 mg/knee (BID), Week 4 (day 28)
[4] = 8.75 mg/knee (BID), Week 8 (day 56)
[5] = 8.75 mg/knee (BID), Week 12 (day 84)
[6] = 17.5 mg/knee (BID), Follow up (week 13, day 91)
[7] = 17.5 mg/knee (BID), Week 2 (day 14)
[8] = 17.5 mg/knee (BID), Week 4 (day 28)
[9] = 17.5 mg/knee (BID), Week 8 (day 56)
[10] = 17.5 mg/knee (BID), Week 12 (day 84)
[11] = 35 mg/knee (BID), Follow up (week 13, day 91)
[12] = 35 mg/knee (BID), Week 2 (day 14)
[13] = 35 mg/knee (BID), Week 4 (day 28)
[14] = 35 mg/knee (BID), Week 8 (day 56)
[15] = 35 mg/knee (BID), Week 12 (day 84)

Question: How did the “Change of WOMAC pain score from baseline (±SEM), adjusted by […] of the testing drug amount” value [1] turn out when `CCN(CC)CCOC(=O)C(C)c1ccc(CC(C)C)cc1` (stereo not drawn) [2-(diethylamino)ethyl 2-(4-isobutylphenyl)propionate] was run?
Answer: The value was −34.5(±5.6) mm.

Question: What about the “Percentage of improvement from baseline, WOMAC pain score, adjusted by […] of the testing drug amount” value (“Percentage … of the testing drug amount” below) [1] of the same compound?
Answer: Its value is −57.6%.

Question: And the “Change of WOMAC pain score from baseline (±SEM)” value [1]?
Answer: Its value is −20.1(±3.25) mm.

Question: And the “Percentage of improvement from baseline, WOMAC pain score” value [1]?
Answer: Its value is −33.6%.

Question: And the “Change of WOMAC pain score from baseline (±SEM), adjusted by […] of the testing drug amount” value [2]?
Answer: The value was −19.2(±4.1) mm.

Question: What about the “Percentage … of the testing drug amount” value [2] of the same compound?
Answer: The value was −32.1%.

Question: What about the “Change of WOMAC pain score from baseline (±SEM)” value [2] of the same compound?
Answer: The value was −11.2(±2.39) mm.

Question: What about the “Percentage of improvement from baseline, WOMAC pain score” value [2] of the same compound?
Answer: The value was −18.7%.

Question: What about the “Change of WOMAC pain score from baseline (±SEM), adjusted by […] of the testing drug amount” value [3] of the same compound?
Answer: Its value is −29.2(±4.8) mm.

Question: What about the “Percentage … of the testing drug amount” value [3] of the same compound?
Answer: Its value is −48.7%.

Question: What about the “Change of WOMAC pain score from baseline (±SEM)” value [3] of the same compound?
Answer: The value was −17.0(±2.79) mm.

Question: What about the “Percentage of improvement from baseline, WOMAC pain score” value [3] of the same compound?
Answer: Its value is −28.4%.

Question: What about the “Change of WOMAC pain score from baseline (±SEM), adjusted by […] of the testing drug amount” value [4] of the same compound?
Answer: The value was −36.7(±4.8) mm.

Question: And the “Percentage … of the testing drug amount” value [4]?
Answer: The value was −61.4%.

Question: And the “Change of WOMAC pain score from baseline (±SEM)” value [4]?
Answer: The value was −21.4(±2.81) mm.

Question: And the “Percentage of improvement from baseline, WOMAC pain score” value [4]?
Answer: The value was −35.8%.

Question: What about the “Change of WOMAC pain score from baseline (±SEM), adjusted by […] of the testing drug amount” value [5] of the same compound?
Answer: Its value is −37.0(±5.4) mm.

Question: What about the “Percentage … of the testing drug amount” value [5] of the same compound?
Answer: The value was −61.9%.

Question: And the “Change of WOMAC pain score from baseline (±SEM)” value [5]?
Answer: Its value is −21.6(±3.13) mm.

Question: And the “Percentage of improvement from baseline, WOMAC pain score” value [5]?
Answer: The value was −36.1%.

Question: And the “Change of WOMAC pain score from baseline (±SEM), adjusted by […] of the testing drug amount” value [6]?
Answer: Its value is −37.9(±5.2) mm.

Question: And the “Percentage … of the testing drug amount” value [6]?
Answer: Its value is −62.1%.

Question: What about the “Change of WOMAC pain score from baseline (±SEM)” value [6] of the same compound?
Answer: Its value is −22.1(±3.01) mm.

Question: And the “Percentage of improvement from baseline, WOMAC pain score” value [6]?
Answer: Its value is −36.2%.

Question: What about the “Change of WOMAC pain score from baseline (±SEM), adjusted by […] of the testing drug amount” value [7] of the same compound?
Answer: The value was −25.7(±3.7) mm.

Question: What about the “Percentage … of the testing drug amount” value [7] of the same compound?
Answer: The value was −42.2%.

Question: What about the “Change of WOMAC pain score from baseline (±SEM)” value [7] of the same compound?
Answer: Its value is −15.0(±2.18) mm.

Question: And the “Percentage of improvement from baseline, WOMAC pain score” value [7]?
Answer: Its value is −24.6%.

Question: And the “Change of WOMAC pain score from baseline (±SEM), adjusted by […] of the testing drug amount” value [8]?
Answer: Its value is −35.2(±4.8) mm.

Question: And the “Percentage … of the testing drug amount” value [8]?
Answer: Its value is −57.6%.

Question: What about the “Change of WOMAC pain score from baseline (±SEM)” value [8] of the same compound?
Answer: The value was −20.5(±2.79) mm.

Question: And the “Percentage of improvement from baseline, WOMAC pain score” value [8]?
Answer: The value was −33.6%.

Question: And the “Change of WOMAC pain score from baseline (±SEM), adjusted by […] of the testing drug amount” value [9]?
Answer: The value was −43.1(±4.9) mm.

Question: What about the “Percentage … of the testing drug amount” value [9] of the same compound?
Answer: Its value is −70.5%.

Question: What about the “Change of WOMAC pain score from baseline (±SEM)” value [9] of the same compound?
Answer: Its value is −25.1(±2.88) mm.

Question: What about the “Percentage of improvement from baseline, WOMAC pain score” value [9] of the same compound?
Answer: The value was −41.1%.

Question: And the “Change of WOMAC pain score from baseline (±SEM), adjusted by […] of the testing drug amount” value [10]?
Answer: The value was −45.5(±5.0) mm.

Question: What about the “Percentage … of the testing drug amount” value [10] of the same compound?
Answer: The value was −74.4%.

Question: And the “Change of WOMAC pain score from baseline (±SEM)” value [10]?
Answer: The value was −26.5(±2.94) mm.

Question: And the “Percentage of improvement from baseline, WOMAC pain score” value [10]?
Answer: Its value is −43.4%.

Question: And the “Change of WOMAC pain score from baseline (±SEM), adjusted by […] of the testing drug amount” value [11]?
Answer: Its value is −41.2(±5.3) mm.

Question: And the “Percentage … of the testing drug amount” value [11]?
Answer: The value was −69.5%.

Question: What about the “Change of WOMAC pain score from baseline (±SEM)” value [11] of the same compound?
Answer: The value was −24.0(±3.09) mm.

Question: What about the “Percentage of improvement from baseline, WOMAC pain score” value [11] of the same compound?
Answer: The value was −40.5%.

Question: What about the “Change of WOMAC pain score from baseline (±SEM), adjusted by […] of the testing drug amount” value [12] of the same compound?
Answer: Its value is −21.6(±4.0) mm.

Question: And the “Percentage … of the testing drug amount” value [12]?
Answer: Its value is −36.5%.

Question: And the “Change of WOMAC pain score from baseline (±SEM)” value [12]?
Answer: The value was −12.6(±2.33) mm.

Question: And the “Percentage of improvement from baseline, WOMAC pain score” value [12]?
Answer: The value was −21.3%.

Question: And the “Change of WOMAC pain score from baseline (±SEM), adjusted by […] of the testing drug amount” value [13]?
Answer: The value was −30.4(±4.4) mm.

Question: And the “Percentage … of the testing drug amount” value [13]?
Answer: The value was −51.2%.

Question: What about the “Change of WOMAC pain score from baseline (±SEM)” value [13] of the same compound?
Answer: Its value is −17.7(±2.54) mm.

Question: What about the “Percentage of improvement from baseline, WOMAC pain score” value [13] of the same compound?
Answer: Its value is −29.9%.

Question: What about the “Change of WOMAC pain score from baseline (±SEM), adjusted by […] of the testing drug amount” value [14] of the same compound?
Answer: The value was −38.1(±5.1) mm.

Question: What about the “Percentage … of the testing drug amount” value [14] of the same compound?
Answer: Its value is −64.3%.

Question: What about the “Change of WOMAC pain score from baseline (±SEM)” value [14] of the same compound?
Answer: The value was −22.2(±2.97) mm.

Question: And the “Percentage of improvement from baseline, WOMAC pain score” value [14]?
Answer: The value was −37.5%.

Question: What about the “Change of WOMAC pain score from baseline (±SEM), adjusted by […] of the testing drug amount” value [15] of the same compound?
Answer: Its value is −43.6(±5.2) mm.

Question: What about the “Percentage … of the testing drug amount” value [15] of the same compound?
Answer: Its value is −73.6%.

Question: What about the “Change of WOMAC pain score from baseline (±SEM)” value [15] of the same compound?
Answer: Its value is −25.4(±3.04) mm.

Question: And the “Percentage of improvement from baseline, WOMAC pain score” value [15]?
Answer: The value was −42.9%.
